Results published in US20070174926A1, “Sperm factor oscillogenin” (priority 2000, published 2007).
“Also recorded” adds a separate entry of the source. Marks after values point to notes of the source that are not given here.

Columns and labels:
mouse eggs [1] = experiment: Parthenogenetic activation of mouse eggs (second polar body extrusion, pronuclear formation); type: cell-based; details: for Egg activation: result in words
Source text: (§1) Several commonly used parthenogenetic agents were used during the course of these studies, including ethanol and ionomycin, which induce a single [Ca^2+]i rise (Cuthbertson, J. Exp. Zool. 226: 311-14 (1983); and Shiina et al., J. Reprod. Fert 97: 143-50 (1993)), and others such as adenophostin A, SF, thimerosal, and SrCl2 that evoke [Ca^2+]i oscillations (Kline et al., Dev. Biol. 149: 80-9 (1992); Swann, Biochem J. 287: 79-84 (1992); and Sato et al., Biol. Reprod. 58: 867-73 (1998)). The activating compounds were either injected into eggs (e.g., adenophostin A and SF, see microinjection procedures for details) or added to the eggs' culture media (e.g., thimerosal, SrCl2). Activation was started in all cases at 16 hr post hCG administration (phCG) and eggs evaluated visually 2 hr later by observing second polar body extrusion (18 hr phCG) and 5 hr post-treatment by evaluation of pronuclear formation. After the activation procedure and the assigned incubation period (1, 2, 4 or 8 hr), eggs were collected in 5 μl Dulbecco's phosphate buffered solution (DPBS)/polyvinylpyrrolidone (3 mg/ml, PVP) and stored at −80° C.
Ethanol activation was carried out by exposing eggs to a 7% ethanol solution in TL-Hepes plus 3 mg/ml bovine serum albumin (BSA) for 5 min at 37° C. After the treatment, eggs were washed several times in TL-Hepes, and cultured for 8 hr (24 hr-phCG). Activation with ionomycin and 6-dimethylaminopurine (DMAP), a kinase inhibitor (Susko-Parrish et al., Dev. Biol. 166: 729-39 (1994)) was accomplished by incubating eggs with 5 μM ionomycin for 5 min in Ca^2+ free-DPBS plus 3 mg/ml BSA. Eggs were then washed in TL-Hepes/1 mg/ml BSA, placed in DMAP/KSOM (2 mM) for 4 hr and cultured for 4 hr after carefuilly washing them free of DMAP. Eggs activated with SrCl2 were incubated for 2 or 4 hr in a Ca^2+-free M-16-like medium supplemented with 10 mM SrCl2. The treated eggs were then washed in TL-Hepes supplemented with 5% FCS and cultured for 2, 4 or 6 hr, depending on the experiment. […]

IP3R-1 = experiment: Western blot quantification of IP3R-1 immunoreactivity in mouse eggs; type: cell-based; details: for IP3R-1 down-regulation (degradation): activation started 16 hr phCG, band intensity relative to MII eggs
Source text: as §1
Ethanol activation was carried out by exposing eggs to a 7% ethanol solution in TL-Hepes plus 3 mg/ml bovine serum albumin (BSA) for 5 min at 37° C. After the treatment, eggs were washed several times in TL-Hepes, and cultured for 8 hr (24 hr-phCG). Activation with ionomycin and 6-dimethylaminopurine (DMAP), a kinase inhibitor (Susko-Parrish et al., Dev. Biol. 166: 729-39 (1994)) was accomplished by incubating eggs with 5 μM ionomycin for 5 min in Ca^2+ free-DPBS plus 3 mg/ml BSA. Eggs were then washed in TL-Hepes/1 mg/ml BSA, placed in DMAP/KSOM (2 mM) for 4 hr and cultured for 4 hr after carefuilly washing them free of DMAP. Eggs activated with SrCl2 were incubated for 2 or 4 hr in a Ca^2+-free M-16-like medium supplemented with 10 mM SrCl2. The treated eggs were then washed in TL-Hepes supplemented with 5% FCS and cultured for 2, 4 or 6 hr, depending on the experiment. For thimerosal activation, eggs were exposed to freshly made solutions of 200 μM thimerosal in KSOM for 30 min. Thimerosal-treated eggs were washed free of the reagent using TL-Hepes supplemented with 5% FCS and incubated for 30 min, 1.5, 3.5 or 7.5 hr.
Lactacystin (100 μM; Calbiochem, La Jolla, Calif.), a proteasome inhibitor (Mellgren, J. Biol. Chem. 272: 29899-903 (1997); and Fenteany et al., J. Biol. Chem. 273: 8545-48 (1998)), was used to determine if the proteasome was involved in down-regulation of the IP3R-1 by SF. Eggs were incubated in the inhibitor for 30 min. prior to injections, and injections of SF were carried out in the presence of the inhibitor. Eggs were then cultured in a new drop of KSOM freshly supplemented with lactacystin for 2 hr.
Equal volumes of crude lysates from 15 or 20 mouse eggs and double strength sample buffer (Laemmli, Nature 227: 680-5 (1970)) were combined as previously described (He et al., Biol. Reprod. 57: 1245-55 (1997)). Samples were boiled for 3 min and loaded into a 4% SDS-polyacrylamide gels. The separated proteins were transferred onto nitrocellulose membranes (Micron Separation; Westboro, Mass.) using a Mini Trans Blot Cell (Bio-Rad; Hercules, Calif.) for 2 hr at 4° C. The membranes were first washed in PBS and 0.05% Tween (PBS-T) and then blocked in 6% nonfat dry milk in PBS-T for 1 hr. […]

mouse eggs [2] = experiment: [Ca2+]i monitoring in fura-2 D loaded mouse eggs after agonist injection or exposure; type: cell-based; details: for Frequency of [Ca2+]i rises, in words: SF and adenophostin A compared with fertilization, p<0.05; for # of rises in 5 min: frequency during 5 min after return of first rise to baseline (Adenophostin A, SF) or after addition (SrCl2, thimerosal); for # of rises in 5 min / Duration of 1st rise / Duration of 3rd rise / Amplitude of 1st rise / Amplitude of 3rd rise: mean ± SEM; for Amplitude of 1st rise / Amplitude of 3rd rise: [Ca2+]i
Experimental: Microinjection procedures were carried out as previously described (Wu et al., Dev. Biol. 203: 369-81 (1998)). Briefly, eggs were placed in a 50 μl microdrop of TL-Hepes supplemented with 2.5% sucrose and 20% FCS under paraffin oil and injected using manipulators (Narishige, Medical Systems Corp., Great Neck, N.Y.) mounted on a Nikon Diaphot microscope (Nikon, Inc., Garden City, N.Y.). Injection pipettes were loaded by suction from a 2-3 μl drop containing one of the following compounds: 0.5 mM fura-2 dextran (fura-2 D; […] K. Tanzawa, Sankyo Colo., Tokyo, Japan). All reagents were diluted in buffer containing 75 mM KCl and 20 mM HEPES, pH 7.0 and were delivered into the ooplasm by pneumatic pressure using a PLI-100 picoinjector (Medical Systems Corp.). […] Wu et al., 1998), and 100 nM for adenophostin A. […] Exp. Zool. 226: 311-14 (1983); and […] et al., J. Reprod. […] Swann, Biochem J. 287: 79-84 (1992); and Sato et al., Biol. Reprod. 58: 867-73 (1998)). […] Activation was started in all cases at 16 hr post hCG administration (phCG) and eggs evaluated visually 2 hr later by observing second polar body extrusion (18 hr phCG) and 5 hr post-treatment by evaluation of pronuclear formation. After the activation procedure and the assigned incubation period (1, 2, 4 or 8 hr), eggs were collected in 5 μl Dulbecco's phosphate buffered solution (DPBS)/polyvinylpyrrolidone (3 mg/ml, PVP) and stored at -80° C. […] Ethanol activation was carried out by exposing eggs to a 7% ethanol solution in TL-Hepes plus 3 mg/ml bovine serum albumin (BSA) for 5 min at 37° C. After the treatment, eggs were washed several times in TL-Hepes, and cultured for 8 hr (24 hr-phCG). […] Biol. 166: 729-39 (1994)) was accomplished by incubating eggs with 5 μM ionomycin for 5 min in Ca^2+ free-DPBS plus 3 mg/ml BSA. Eggs were then washed in TL-Hepes/1 mg/ml BSA, placed in DMAP/KSOM (2 mM) for 4 hr and cultured for 4 hr after carefuilly washing them free of DMAP. Eggs activated with SrCl2 were incubated for 2 or 4 hr in a Ca^2+-free M-16-like medium supplemented with 10 mM SrCl2. The treated eggs were then washed in TL-Hepes supplemented with 5% FCS and cultured for 2, 4 or 6 hr, depending on the experiment. […] Fluorescence Recordings and [Ca^2+]i Determinations Monitoring of [Ca^2+]i levels using fura-2 D loaded eggs was carried out as previously described (Wu et al., 1998). UV illumination was provided by a 75 watt xenon arc lamp, and 340 and 380 nm excitation wavelengths were utilized. The intensity of the UV light was attenuated 32-fold with neutral density filters, and a photomultiplier tube quantified the emitted light after passing through a 500 nm barrier filter. The fluorescence signal was averaged for the whole egg. A modified Phoscan 3.0 software program run on a 486 IBM-compatible system controlled the rotation of the filter wheel and shutter apparatus to alternate wavelengths. Free [Ca^2+]i was determined from the 340 nm/380 nm ratio of fluorescence. Rmin and Rmax were calculated using […] fura-2 D in Ca^2+-free DPBS supplemented with 2 mM EDTA (Rmin) or 2 mM CaCl2 (Rmax) and with 60% sucrose to correct for intracellular viscosity (Grynkiewicz et al., J. Biol. Chem. 260: 3440-50 (1985); and Poenie, Cell Calcium 11: 85-91 (1990)). The same solutions were also used alone for background subtractions. Ca^2+ measurements carried out in the presence of extracellular SrCl2 are presented as fluorescence ratios of the 340 nm/380 nm excitation wavelengths. Calculations of the [Ca^2+]i concentration was in this case not performed, since fura-2 has also some affinity for Sr^2+. The presence of intracellular Sr^2+ therefore interferes and prevents obtaining […] and/or Sr2+ intracellular concentrations (Hajnoczky et al., EMBO J., 16: 3533-43 (1997)). Eggs were measured individually in 35 μl drops of TL-Hepes medium placed on a glass coverslip on the bottom of a plastic culture dish under paraffin oil. […]

IP3R = details: full IP3R agonist; cited from earlier work

SMILES | Egg activation (mouse eggs [1]) | IP3R-1 down-regulation (degradation) (IP3R-1) | Frequency of [Ca2+]i rises, in words (mouse eggs [2]) | # of rises in 5 min (mouse eggs [2]) | Duration of 1st rise (mouse eggs [2]) | Duration of 3rd rise (mouse eggs [2]) | Amplitude of 1st rise (mouse eggs [2]) | Amplitude of 3rd rise (mouse eggs [2]) | Potency relative to IP3 (IP3R) | Cell cycle progression assessed by extrusion of the polar body in SF-injected eggs (mouse eggs [1]; eggs pretreated and incubated with inhibitor, not shown) | Effect on SF-induced degradation of IP3R-1 (IP3R-1; 100 μM inhibitor, 30 min preincubation, 2 hr after SF injection)
CCO [ethanol] | high rates of activation | does not induce down regulation of IP3R-1 | – | – | – | – | – | – | – | – | –
[Cl-].[Cl-].[Sr+2] [SrCl2] | high rates of egg activation | failed to induce any changes | lower frequency | 1 ± 0.0^b | 740 ± 290^b sec | 360 ± 70^b sec | – | – | – | – | –
C[CH2][Hg][S]c1ccccc1C(=O)[O-].[Na+] [Thimerosal, thimerosal] | – | rapid and sustained down-regulation | low frequency | 1 ± 0.4^b | 180 ± 44^a sec | 70 ± 16^a sec | 330 ± 30^b nM | 640 ± 90^a nM | – | – | –
Nc1ncnc2c1ncn2[C@@H]1O[C@H](CO)[C@@H](O[C@H]2O[C@H](CO)[C@@H](OP(=O)(O)O)[C@H](OP(=O)(O)O)[C@H]2O)[C@H]1OP(=O)(O)O [Adenophostin A, adenophostin A] | – | significant down-regulation; also recorded: near total down-regulation | higher frequency | 3.9 ± 1.5^a*,* | 260 ± 65^a sec | 70 ± 22^a sec | 620 ± 30^a, b nM | 530 ± 100^a nM | approximately 100 fold | – | –
CC(=O)N[C@@H](CSC(=O)[C@]1([C@@H](O)C(C)C)NC(=O)[C@H](C)[C@@H]1O)C(=O)O [lactacystin] | – | – | – | – | – | – | – | – | – | clearly delayed | markedly inhibited
